In publication PMC5063900, “A phase 1 study of the safety, tolerability, pharmacokinetics, and pharmacodynamics of TAK-063, a selective PDE10A inhibitor” (Psychopharmacology, 2016):

Test: CNS Vital Signs (CNSVS) computerized cognition battery
Type: in vivo, human
Details: for Cognitive flexibility domain score, Difference (TAK-063 LS mean - placebo LS mean, change from baseline) / Composite memory domain score, Difference (TAK-063 LS mean - placebo LS mean, change from baseline) / Executive functioning domain score, Difference (TAK-063 LS mean - placebo LS mean, change from baseline) / Processing speed domain score, Difference (TAK-063 LS mean - placebo LS mean, change from baseline) / Psychomotor speed domain score, Difference (TAK-063 LS mean - placebo LS mean, change from baseline) / Reaction time domain score, Difference (TAK-063 LS mean - placebo LS mean, change from baseline) / Reasoning domain score, Difference (TAK-063 LS mean - placebo LS mean, change from baseline) / Sustained attention domain score, Difference (TAK-063 LS mean - placebo LS mean, change from baseline) / Verbal memory domain score, Difference (TAK-063 LS mean - placebo LS mean, change from baseline) / Visual memory domain score, Difference (TAK-063 LS mean - placebo LS mean, change from baseline) / Working memory domain score, Difference (TAK-063 LS mean - placebo LS mean, change from baseline): 6 h postdose, fasting
Protocol: Cognitive flexibility, attention, executive function, memory, reasoning, motor control, psychomotor speed, reaction time, and information processing speed were assessed predose and at 2 and 6 h following TAK-063 treatment using the CNSVS computerized cognition battery. The CNSVS cognition battery is a well-validated, sensitive measure and included the following tests: verbal and visual memory (VBM and VIM) tests, finger-tapping test, symbol digit coding test, Stroop test, shifting attention test, the nonverbal reasoning test, and the 4-part continuous performance test (Gualtieri and Johnson [2006]). Standardized domain scores for cognitive flexibility, composite memory, executive functioning, processing speed, psychomotor speed, reaction time, reasoning, sustained attention, verbal memory, visual memory, and working memory were reported. In all domains, a decrease in the standardized domain score is indicative of impairment.
All statistical analyses were generated using SAS Version 9.2 (SAS, Cary, NC, USA). The PK parameters were derived using non-compartmental methods with WinNonlin Enterprise Version 6.3 (Pharsight Corp., Mountain View, CA, USA). Frequency or descriptive statistics were used for summary of data. Where indicated, percent coefficient of variation was included in the summary of continuous data. All statistical tests were 2-tailed at α = 0.05 level for significance unless otherwise stated. A power model was used to evaluate dose proportionality by race for fasted subjects; in the event of no observed race effect, dose proportionality was assessed for all subjects. To evaluate the food effect, a paired t test was performed on T max and natural log-transformed C max, and AUCs. An ANCOVA model with baseline scores and race as covariates was used to assess the effects of TAK-063 on CNSVS domain scores.

With `COc1cn(-c2ccc(-n3cccn3)cc2F)nc(-c2ccnn2-c2ccccc2)c1=O` [TAK-063] the “Cognitive flexibility domain score, Difference (TAK-063 LS mean - placebo LS mean, change from baseline)” value (3 mg) was 2.9, the “Composite memory domain score, Difference (TAK-063 LS mean - placebo LS mean, change from baseline)” value (3 mg) was -1.4 and the “Executive functioning domain score, Difference (TAK-063 LS mean - placebo LS mean, change from baseline)” value (3 mg) was 2.9. For the same compound, the “Processing speed domain score, Difference (TAK-063 LS mean - placebo LS mean, change from baseline)” value (3 mg) was 2.5, the “Psychomotor speed domain score, Difference (TAK-063 LS mean - placebo LS mean, change from baseline)” value (3 mg) was -1.8 and the “Reaction time domain score, Difference (TAK-063 LS mean - placebo LS mean, change from baseline)” value (3 mg) was 1.5. The “Reasoning domain score, Difference (TAK-063 LS mean - placebo LS mean, change from baseline)” value (3 mg) was 6.9, the “Sustained attention domain score, Difference (TAK-063 LS mean - placebo LS mean, change from baseline)” value (3 mg) was 15.0 and the “Verbal memory domain score, Difference (TAK-063 LS mean - placebo LS mean, change from baseline)” value (3 mg) was -4.8. For the same compound, the “Visual memory domain score, Difference (TAK-063 LS mean - placebo LS mean, change from baseline)” value (3 mg) was 4.5, the “Working memory domain score, Difference (TAK-063 LS mean - placebo LS mean, change from baseline)” value (3 mg) was 9.9 and the “Cognitive flexibility domain score, Difference (TAK-063 LS mean - placebo LS mean, change from baseline)” value (10 mg) was -10.0. For the same compound, the “Composite memory domain score, Difference (TAK-063 LS mean - placebo LS mean, change from baseline)” value (10 mg) was -1.9, the “Executive functioning domain score, Difference (TAK-063 LS mean - placebo LS mean, change from baseline)” value (10 mg) was -10.0 and the “Processing speed domain score, Difference (TAK-063 LS mean - placebo LS mean, change from baseline)” value (10 mg) was 0.2. The “Psychomotor speed domain score, Difference (TAK-063 LS mean - placebo LS mean, change from baseline)” value (10 mg) was -9.6, the “Reaction time domain score, Difference (TAK-063 LS mean - placebo LS mean, change from baseline)” value (10 mg) was -5.6 and the “Reasoning domain score, Difference (TAK-063 LS mean - placebo LS mean, change from baseline)” value (10 mg) was 2.2. The “Sustained attention domain score, Difference (TAK-063 LS mean - placebo LS mean, change from baseline)” value (10 mg) was 3.6, the “Verbal memory domain score, Difference (TAK-063 LS mean - placebo LS mean, change from baseline)” value (10 mg) was 2.9 and the “Visual memory domain score, Difference (TAK-063 LS mean - placebo LS mean, change from baseline)” value (10 mg) was -4.4. For the same compound, the “Working memory domain score, Difference (TAK-063 LS mean - placebo LS mean, change from baseline)” value (10 mg) was 2.3, the “Cognitive flexibility domain score, Difference (TAK-063 LS mean - placebo LS mean, change from baseline)” value (30 mg) was -1.9 and the “Composite memory domain score, Difference (TAK-063 LS mean - placebo LS mean, change from baseline)” value (30 mg) was 7.5. The “Executive functioning domain score, Difference (TAK-063 LS mean - placebo LS mean, change from baseline)” value (30 mg) was -1.2, the “Processing speed domain score, Difference (TAK-063 LS mean - placebo LS mean, change from baseline)” value (30 mg) was 2.2 and the “Psychomotor speed domain score, Difference (TAK-063 LS mean - placebo LS mean, change from baseline)” value (30 mg) was -3.7. For the same compound, the “Reaction time domain score, Difference (TAK-063 LS mean - placebo LS mean, change from baseline)” value (30 mg) was -2.8, the “Reasoning domain score, Difference (TAK-063 LS mean - placebo LS mean, change from baseline)” value (30 mg) was -0.6 and the “Sustained attention domain score, Difference (TAK-063 LS mean - placebo LS mean, change from baseline)” value (30 mg) was 2.5. The “Verbal memory domain score, Difference (TAK-063 LS mean - placebo LS mean, change from baseline)” value (30 mg) was 3.8, the “Visual memory domain score, Difference (TAK-063 LS mean - placebo LS mean, change from baseline)” value (30 mg) was 8.3 and the “Working memory domain score, Difference (TAK-063 LS mean - placebo LS mean, change from baseline)” value (30 mg) was -2.2. For the same compound, the “Cognitive flexibility domain score, Difference (TAK-063 LS mean - placebo LS mean, change from baseline)” value (100 mg) was -5.6, the “Composite memory domain score, Difference (TAK-063 LS mean - placebo LS mean, change from baseline)” value (100 mg) was -13.5 and the “Executive functioning domain score, Difference (TAK-063 LS mean - placebo LS mean, change from baseline)” value (100 mg) was -2.2. For the same compound, the “Processing speed domain score, Difference (TAK-063 LS mean - placebo LS mean, change from baseline)” value (100 mg) was -4.7, the “Psychomotor speed domain score, Difference (TAK-063 LS mean - placebo LS mean, change from baseline)” value (100 mg) was -11.4 and the “Reaction time domain score, Difference (TAK-063 LS mean - placebo LS mean, change from baseline)” value (100 mg) was -3.4. The “Reasoning domain score, Difference (TAK-063 LS mean - placebo LS mean, change from baseline)” value (100 mg) was 2.0, the “Sustained attention domain score, Difference (TAK-063 LS mean - placebo LS mean, change from baseline)” value (100 mg) was -0.1 and the “Verbal memory domain score, Difference (TAK-063 LS mean - placebo LS mean, change from baseline)” value (100 mg) was -12.0. For the same compound, the “Visual memory domain score, Difference (TAK-063 LS mean - placebo LS mean, change from baseline)” value (100 mg) was -8.3, the “Working memory domain score, Difference (TAK-063 LS mean - placebo LS mean, change from baseline)” value (100 mg) was -6.2 and the “Cognitive flexibility domain score, Difference (TAK-063 LS mean - placebo LS mean, change from baseline)” value (300 mg) was -28.4. For the same compound, the “Composite memory domain score, Difference (TAK-063 LS mean - placebo LS mean, change from baseline)” value (300 mg) was -19.6, the “Executive functioning domain score, Difference (TAK-063 LS mean - placebo LS mean, change from baseline)” value (300 mg) was -26.4 and the “Processing speed domain score, Difference (TAK-063 LS mean - placebo LS mean, change from baseline)” value (300 mg) was -1.5. For the same compound, the “Psychomotor speed domain score, Difference (TAK-063 LS mean - placebo LS mean, change from baseline)” value (300 mg) was -11.1, the “Reaction time domain score, Difference (TAK-063 LS mean - placebo LS mean, change from baseline)” value (300 mg) was -4.1 and the “Reasoning domain score, Difference (TAK-063 LS mean - placebo LS mean, change from baseline)” value (300 mg) was -2.0. For the same compound, the “Sustained attention domain score, Difference (TAK-063 LS mean - placebo LS mean, change from baseline)” value (300 mg) was -8.1, the “Verbal memory domain score, Difference (TAK-063 LS mean - placebo LS mean, change from baseline)” value (300 mg) was -17.3 and the “Visual memory domain score, Difference (TAK-063 LS mean - placebo LS mean, change from baseline)” value (300 mg) was -14.0. The “Working memory domain score, Difference (TAK-063 LS mean - placebo LS mean, change from baseline)” value (300 mg) was -1.4, the “Cognitive flexibility domain score, Difference (TAK-063 LS mean - placebo LS mean, change from baseline)” value (1000 mg) was -15.6 and the “Composite memory domain score, Difference (TAK-063 LS mean - placebo LS mean, change from baseline)” value (1000 mg) was -8.6. For the same compound, the “Executive functioning domain score, Difference (TAK-063 LS mean - placebo LS mean, change from baseline)” value (1000 mg) was -14.1, the “Processing speed domain score, Difference (TAK-063 LS mean - placebo LS mean, change from baseline)” value (1000 mg) was -19.7 and the “Psychomotor speed domain score, Difference (TAK-063 LS mean - placebo LS mean, change from baseline)” value (1000 mg) was -22.7. For the same compound, the “Reaction time domain score, Difference (TAK-063 LS mean - placebo LS mean, change from baseline)” value (1000 mg) was -16.5, the “Reasoning domain score, Difference (TAK-063 LS mean - placebo LS mean, change from baseline)” value (1000 mg) was -0.1 and the “Sustained attention domain score, Difference (TAK-063 LS mean - placebo LS mean, change from baseline)” value (1000 mg) was 0.7. The “Verbal memory domain score, Difference (TAK-063 LS mean - placebo LS mean, change from baseline)” value (1000 mg) was -5.8, the “Visual memory domain score, Difference (TAK-063 LS mean - placebo LS mean, change from baseline)” value (1000 mg) was -6.0 and the “Working memory domain score, Difference (TAK-063 LS mean - placebo LS mean, change from baseline)” value (1000 mg) was -2.7. For the same compound, the “Single dose causing impairments in cognitive flexibility, executive functioning, processing and psychomotor speed, and visual memory” value (single dose, CNSVS) was at least 100 mg.
